How the values were obtained:
[1] = molecular target: T1, Purified recombinant ADAMTS-7 (rat prodomain/human catalytic domain, SEQ ID No. 01 or 02) (Homo sapiens, UniProt Q9UKP4); assay: Assay for ADAMTS-7 enzymatic activity (FRET substrate cleavage); assay type: biochemical; conditions: FRET substrate SEQ ID No. 11, 120 min at 32° C.; read-out: ADAMTS7-IC50
T1 construct: rat ADAMTS-7 signal peptide + prodomain (rat 1-217, Q1EHB3) (N); 2xStrep tag (C); 6xHis tag (C); made in house; host or cells: Expi293 cells
T1 sequence (Q9UKP4 237-537): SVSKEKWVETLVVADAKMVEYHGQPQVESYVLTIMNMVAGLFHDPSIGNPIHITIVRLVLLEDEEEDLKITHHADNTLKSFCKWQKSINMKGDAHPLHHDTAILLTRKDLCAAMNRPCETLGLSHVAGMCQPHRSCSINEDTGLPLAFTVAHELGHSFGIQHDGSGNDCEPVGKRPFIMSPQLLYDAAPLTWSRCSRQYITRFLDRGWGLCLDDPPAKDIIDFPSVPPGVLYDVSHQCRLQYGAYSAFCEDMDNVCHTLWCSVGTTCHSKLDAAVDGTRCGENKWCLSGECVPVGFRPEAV
How it was run: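 About 20 nM enzyme in 20 mM HEPES pH 8.0, 150 mM NaCl, 5 mM CaCl2, 0.004% Brij and 10 μM ZnCl2 was mixed with compound in DMSO and a QXL520-quenched FRET peptide from thrombospondin-1 (275-289). After 120 min at 32 °C, fluorescence was read at 485/520 nm. IC50 came from percent inhibition versus concentration.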

ADAMTS4 = molecular target: T2, ADAMTS4 (Homo sapiens, UniProt O75173); assay: Selectivity assay for ADAMTS-7 modulators (FRET), ADAMTS4; assay type: biochemical; conditions: 50 nM enzyme (R&D 4307-AD), 1 μM Dabcyl/Edans FRET substrate, 120 min at 32° C.
T2 construct: purchased R&D 4307-AD
T2 sequence (O75173 213-685 limits assumed): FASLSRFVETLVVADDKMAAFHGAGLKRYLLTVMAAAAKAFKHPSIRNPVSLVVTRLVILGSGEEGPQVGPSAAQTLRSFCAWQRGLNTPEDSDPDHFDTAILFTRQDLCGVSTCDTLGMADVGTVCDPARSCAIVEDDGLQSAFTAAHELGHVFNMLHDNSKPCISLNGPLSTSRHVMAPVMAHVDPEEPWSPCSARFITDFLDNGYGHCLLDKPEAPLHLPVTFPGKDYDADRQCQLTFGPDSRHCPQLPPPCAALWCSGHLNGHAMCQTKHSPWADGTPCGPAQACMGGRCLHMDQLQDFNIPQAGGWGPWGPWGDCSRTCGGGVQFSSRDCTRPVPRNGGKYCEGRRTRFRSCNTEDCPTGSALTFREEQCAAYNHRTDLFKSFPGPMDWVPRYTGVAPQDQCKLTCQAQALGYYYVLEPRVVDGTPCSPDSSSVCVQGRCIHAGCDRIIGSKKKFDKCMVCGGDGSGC
How it was run: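 Enzyme in 50 mM Tris pH 7.5, 150 mM NaCl, 10 mM CaCl2, 0.05% Brij, preincubated with compound in DMSO; reaction started with FRET substrate. Fluorescence increase read after 120 min at 32° C; IC50 from percent inhibition versus compound concentration.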

SMILES | IC50 [1] | IC50 (ADAMTS4)
O=C1NC(=O)[C@](CNC(=O)c2cnn(-c3ccc(C(F)(F)F)c(F)c3)n2)(C2CC2)N1 [Example 5, N-{[(4R)-4-cyclopropyl-2,5-dioxoimidazolidin-4-yl]methyl}-2-[3-fluoro-4-(trifluoromethyl)phenyl]-2H-1,2,3-triazole-4-carboxamide] | 120 nM | 4600 nM
O=C1NC(=O)[C@](CNC(=O)c2cnn(-c3ccc(F)c(F)c3)n2)(C2CC2)N1 [Example 8, N-{[(4R)-4-cyclopropyl-2,5-dioxoimidazolidin-4-yl]methyl}-2-(3,4-difluorophenyl)-2H-1,2,3-triazole-4-carboxamide] | 7 nM | 175 nM
O=C1NC(=O)[C@](CNC(=O)c2cnn(-c3cccc(Cl)c3)n2)(C2CC2)N1 [Example 10, 2-(3-chlorophenyl)-N-{[(4R)-4-cyclopropyl-2,5-dioxoimidazolidin-4-yl]methyl}-2H-1,2,3-triazole-4-carboxamide] | 21 nM | 450 nM
Cc1ccc(-n2ncc(C(=O)NC[C@@]3(C4CC4)NC(=O)NC3=O)n2)cc1 [Example 13, N-{[(4R)-4-cyclopropyl-2,5-dioxoimidazolidin-4-yl]methyl}-2-(4-methylphenyl)-2H-1,2,3-triazole-4-carboxamide] | 47 nM | 950 nM
N#Cc1ccc(-n2ncc(C(=O)NC[C@@]3(C4CC4)NC(=O)NC3=O)n2)cc1 [Example 14, 2-(4-cyanophenyl)-N-{[(4R)-4-cyclopropyl-2,5-dioxoimidazolidin-4-yl]methyl}-2H-1,2,3-triazole-4-carboxamide] | 400 nM | 17000 nM
N#Cc1cccc(-n2ncc(C(=O)NC[C@@]3(C4CC4)NC(=O)NC3=O)n2)c1 [Example 17, 2-(3-cyanophenyl)-N-{[(4R)-4-cyclopropyl-2,5-dioxoimidazolidin-4-yl]methyl}-2H-1,2,3-triazole-4-carboxamide] | 32 nM | 600 nM
Cc1cccc(-n2ncc(C(=O)NC[C@@]3(C4CC4)NC(=O)NC3=O)n2)c1 [Example 18, N-{[(4R)-4-cyclopropyl-2,5-dioxoimidazolidin-4-yl]methyl}-2-(3-methylphenyl)-2H-1,2,3-triazole-4-carboxamide] | 170 nM | 2200 nM
COc1ccc(-n2ncc(C(=O)NC[C@@]3(C4CC4)NC(=O)NC3=O)n2)cc1 [Example 27, N-{[(4R)-4-cyclopropyl-2,5-dioxoimidazolidin-4-yl]methyl}-2-(4-methoxyphenyl)-2H-1,2,3-triazole-4-carboxamide] | 100 nM | 6000 nM
CS(=O)(=O)c1ccc(-n2ncc(C(=O)NC[C@@]3(C4CC4)NC(=O)NC3=O)n2)cc1 [Example 28, N-{[(4R)-4-cyclopropyl-2,5-dioxoimidazolidin-4-yl]methyl}-2-[4-(methylsulfonyl)phenyl]-2H-1,2,3-triazole-4-carboxamide] | 870 nM | 67000 nM
O=C1NC(=O)[C@](CNC(=O)c2cnn(-c3ccc(F)cc3F)n2)(C2CC2)N1 [Example 31, N-{[(4R)-4-cyclopropyl-2,5-dioxoimidazolidin-4-yl]methyl}-2-(2,4-difluorophenyl)-2H-1,2,3-triazole-4-carboxamide] | 41 nM | 4250 nM
O=C1NC(=O)[C@](CNC(=O)c2cnn(-c3ccc(Br)cc3)n2)(C2CC2)N1 [Example 33, 2-(4-bromophenyl)-N-{[(4R)-4-cyclopropyl-2,5-dioxoimidazolidin-4-yl]methyl}-2H-1,2,3-triazole-4-carboxamide] | 58 nM | 1400 nM
O=C1NC(=O)[C@](CNC(=O)c2cnn(-c3ccc(F)cc3)n2)(C2CC2)N1 [Example 34, N-{[(4R)-4-cyclopropyl-2,5-dioxoimidazolidin-4-yl]methyl}-2-(4-fluorophenyl)-2H-1,2,3-triazole-4-carboxamide] | 26 nM | 1420 nM
O=C1NC(=O)[C@](CNC(=O)c2cnn(-c3cccc(F)c3F)n2)(C2CC2)N1 [Example 35, N-{[(4R)-4-cyclopropyl-2,5-dioxoimidazolidin-4-yl]methyl}-2-(2,3-difluorophenyl)-2H-1,2,3-triazole-4-carboxamide] | 74 nM | 3100 nM
O=C1NC(=O)[C@](CNC(=O)c2cnn(-c3cc(F)ccc3F)n2)(C2CC2)N1 [Example 36, N-{[(4R)-4-cyclopropyl-2,5-dioxoimidazolidin-4-yl]methyl}-2-(2,5-difluorophenyl)-2H-1,2,3-triazole-4-carboxamide] | 110 nM | 5500 nM
O=C1NC(=O)C(CNC(=O)c2cnn(-c3ccccc3)n2)(c2ccccn2)N1 (stereo not drawn) [Example 38, ent-N-{[2,5-dioxo-4-(pyridin-2-yl)imidazolidin-4-yl]methyl}-2-phenyl-2H-1,2,3-triazole-4-carboxamide] | 10 nM | 2800 nM

Further compounds by falling IC50 [1], results first:

IC50 [1] | IC50 (ADAMTS4) | SMILES
980 nM | 12000 nM | Cc1ccccc1-n1ncc(C(=O)NC[C@@]2(C3CC3)NC(=O)NC2=O)n1 [Example 12, N-{[(4R)-4-cyclopropyl-2,5-dioxoimidazolidin-4-yl]methyl}-2-(2-methylphenyl)-2H-1,2,3-triazole-4-carboxamide]
470 nM | 10000 nM | O=C1NC(=O)[C@](CNC(=O)c2cnn(-c3ccccc3Cl)n2)(C2CC2)N1 [Example 11, 2-(2-chlorophenyl)-N-{[(4R)-4-cyclopropyl-2,5-dioxoimidazolidin-4-yl]methyl}-2H-1,2,3-triazole-4-carboxamide]
180 nM | 7600 nM | O=C1NC(=O)[C@](CNC(=O)c2cnn(-c3ccccc3F)n2)(C2CC2)N1 [Example 37, N-{[(4R)-4-cyclopropyl-2,5-dioxoimidazolidin-4-yl]methyl}-2-(2-fluorophenyl)-2H-1,2,3-triazole-4-carboxamide]
79 nM | 2200 nM | CC(C)(C)C1(CNC(=O)c2cnn(-c3ccc(F)cc3)n2)NC(=O)NC1=O (stereo not drawn) [Example 3, ent-N-{[4-tert-butyl-2,5-dioxoimidazolidin-4-yl]methyl}-2-(4-fluorophenyl)-2H-1,2,3-triazole-4-carboxamide]
35 nM | 910 nM | O=C1NC(=O)[C@](CNC(=O)c2cnn(-c3ccc(Cl)c(Cl)c3)n2)(C2CC2)N1 [Example 32, N-{[(4R)-4-cyclopropyl-2,5-dioxoimidazolidin-4-yl]methyl}-2-(3,4-dichlorophenyl)-2H-1,2,3-triazole-4-carboxamide]
26 nM | 480 nM | O=C1NC(=O)[C@](CNC(=O)c2cnn(-c3ccc(Cl)cc3)n2)(C2CC2)N1 [Example 9, 2-(4-chlorophenyl)-N-{[(4R)-4-cyclopropyl-2,5-dioxoimidazolidin-4-yl]methyl}-2H-1,2,3-triazole-4-carboxamide]
12 nM | 500 nM | O=C1NC(=O)[C@](CNC(=O)c2cnn(-c3ccc(Cl)c(F)c3)n2)(C2CC2)N1 [Example 30, 2-(4-chloro-3-fluorophenyl)-N-{[(4R)-4-cyclopropyl-2,5-dioxoimidazolidin-4-yl]methyl}-2H-1,2,3-triazole-4-carboxamide]
5 nM | 250 nM | O=C1NC(=O)[C@](CNC(=O)c2cnn(-c3ccc(F)c(Cl)c3)n2)(C2CC2)N1 [Example 29, 2-(3-chloro-4-fluorophenyl)-N-{[(4R)-4-cyclopropyl-2,5-dioxoimidazolidin-4-yl]methyl}-2H-1,2,3-triazole-4-carboxamide]

Reference: patent US20230027985A1, “SUBSTITUTED HYDANTOINAMIDES AS ADAMTS7 ANTAGONISTS” (Bayer Aktiengesellschaft, priority 2019, published 2023)
